In US20230203060A1 (GENFLEET THERAPEUTICS (SHANGHAI) INC., priority 2020, published 2023):
Counter-ions that a name gives are not always drawn.

Key:
KRAS G12C = target: T1, KRAS G12C (Homo sapiens, UniProt P01116, G12C); test: KRAS G12C NEA-HTRF experiment (SOS1-catalyzed displacement of GDP by GTP); format: biochemical
T1 construct: purchased Reactionbiology
Method in brief: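 His-tagged KRAS G12C preloaded with DY647-GDP was preincubated 15 min at 20 °C with compound, then exchanged with SOS1 (0.2 μM working solution) and GTP (200 μM working solution) for 2 h at 20 °C in the dark. HTRF 665/615 nm ratio with anti-His-Tb was normalised to T0 and no-compound controls; IC50 by four-parameter fit.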

[1] = test system: KRAS G12C mutant MIA PaCa-2 cells; test: Cell proliferation inhibition experiment, 3D spheroid, CellTiter-Glo, MIA PaCa-2; format: cell-based, human; conditions: Homo sapiens, MIA PaCa-2, 120 h, 3D cell model in 384-well spheroid plate, 5 days, CellTiter-Glo; read-out: MIA-PaCa2 IC50
Method in brief: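 200 MIA PaCa-2 cells/well grown overnight as 3D spheroids, then exposed to 3.16-fold compound dilutions (0.1% DMSO final) for 5 days. Viability read by CellTiter-Glo luminescence; inhibition calculated against DMSO and medium-only controls, and IC50 fitted by four-parameter model.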

T1 sequence (P01116 1-188 isoform P01116-2 G12C): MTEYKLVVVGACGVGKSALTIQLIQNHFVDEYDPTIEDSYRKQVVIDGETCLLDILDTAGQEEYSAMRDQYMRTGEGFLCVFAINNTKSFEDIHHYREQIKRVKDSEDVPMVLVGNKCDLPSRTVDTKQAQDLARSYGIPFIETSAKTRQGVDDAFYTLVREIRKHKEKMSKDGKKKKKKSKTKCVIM

Row | IC50 (KRAS G12C) | IC50 [1] | Structure (SMILES)
1 | 13 nM | 4.3 nM | C=CC(=O)N1CCN2C(=O)c3c(N4CC[C@H](OC)C4(C)C)nc(-c4c(O)cccc4F)c(Cl)c3OC[C@H]2C1 (single isomer, unassigned) [Z241a-1]
2 | 7 nM | 1.1 nM | C=CC(=O)N1CCN2C(=O)c3c(N4CC(N(C)CCOC)CC4(C)C)nc(-c4c(O)cccc4F)c(Cl)c3OCC2C1 (single isomer, unassigned) [Z296-1]
3 | 27 nM | 11 nM | C=CC(=O)N1CCN2C(=O)c3c(N4C[C@@H](O)CC4(C)C)nc(-c4c(O)ccc(Cl)c4F)c(F)c3OC[C@H]2C1 (single isomer, unassigned) [Z340-1]
4 | 74 nM | 16 nM | C=CC(=O)N1CCN2C(=O)c3c(N4CCN(C)C[C@@H]4C)nc(-c4c(F)ccc(Cl)c4O)c(Cl)c3OC[C@H]2C1 [Z342, (6aR)-8-acryloyl-4-chloro-3-(3-chloro-6-fluoro-2-hydroxyphenyl)-1-((S)-2,4-dimethylpiperazin-1-yl)-6,6a,7,8,9,10-hexahydro-12H-pyrazino[2,1-c]pyrido[3,4-f][1,4]oxazepin-12-one]
5 | 98.1 nM | 19.6 nM | C=CC(=O)N1CCN2C(=O)c3c(N4CC[C@@H](N(C)C)C4(C)C)nc(-c4c(O)cccc4F)c(Cl)c3OC[C@H]2C1 (single isomer, unassigned) [Z360-1]
6 | 113 nM | 14.9 nM | C=CC(=O)N1CCN2C(=O)c3c(N4CC(C)(C)OC[C@@H]4C)nc(-c4c(O)cccc4F)c(Cl)c3OC[C@H]2C1 [Z276-1, (6aR)-8-acryloyl-4-chloro-3-(2-fluoro-6-hydroxyphenyl)-1-((S)-2,2,5-trimethylmorpholino)-6,6a,7,8,9,10-hexahydro-12H-pyrazino[2,1-c]pyrido[3,4-f][1,4]oxazepin-12-one]
7 | 8 nM | 3 nM | C=CC(=O)N1CCN2C(=O)c3c(N4C[C@@H](N5CCOCC5)CC4(C)C)nc(-c4c(O)cccc4F)c(Cl)c3OC[C@H]2C1 (single isomer, unassigned) [Z297-2]
8 | 76 nM | 22.2 nM | C=CC(=O)N1CCN2C(=O)c3c(N4C[C@](C)(O)CC4(C)C)nc(-c4c(O)cccc4F)c(Cl)c3OC[C@H]2C1 (single isomer, unassigned) [Z243-2]
9 | 26.4 nM | 7.2 nM | C=CC(=O)N1CCN2C(=O)c3c(N4C[C@@H](N(C)CCOC)C[C@@H]4C)nc(-c4c(O)cccc4F)c(Cl)c3OC[C@H]2C1 [Z358-1]
10 | 9 nM | 2.2 nM | C=CC(=O)N1CCN2C(=O)c3c(N4CCN(C(=O)CC)C[C@@H]4C)nc(-c4c(O)cccc4F)c(Cl)c3OC[C@H]2C1 [Z316-1, (6aR)-8-acryloyl-4-chloro-3-(2-fluoro-6-hydroxyphenyl)-1-((S)-2-methyl-4-propionylpiperazin-1-yl)-6,6a,7,8,9,10-hexahydro-12H-pyrazino[2,1-c]pyrido[3,4-f][1,4]oxazepin-12-one]
11 | 76 nM | 30.7 nM | C=CC(=O)N1CCN2C(=O)c3c(N4Cc5cn(C)nc5[C@H]4C)nc(-c4c(O)cccc4F)c(Cl)c3OC[C@H]2C1 (single isomer, unassigned) [Z291-1S, trifluoroacetate]
12 | 65 nM | 7.7 nM | C=CC(=O)N1CCN2C(=O)c3c(N4C[C@@H](N(C)C)C[C@@H]4C)nc(-c4c(O)cccc4F)c(Cl)c3OC[C@H]2C1 [Z237-2, (6aR)-8-acryloyl-4-chloro-1-((2S,4S)-4-(dimethylamino)-2-methylpyrrolidin-1-yl)-3-(2-fluoro-6-hydroxyphenyl)-6,6a,7,8,9,10-hexahydro-12H-pyrazino[2,1-c]pyrido[3,4-f][1,4]oxazepin-12-one]
13 | 15 nM | 1.7 nM | C=CC(=O)N1CCN2C(=O)c3c(N4CCN(C)C[C@@H]4C)nc(-c4nc(N)cc(C)c4C(F)(F)F)c(Cl)c3OC[C@H]2C1 [Z328-1, (R)-8-acryloyl-3-(6-amino-4-methyl-3-(trifluoromethyl)pyridin-2-yl)-4-chloro-1-((S)-2,4-dimethylpiperazin-1-yl)-6,6a,7,8,9,10-hexahydro-12H-pyrazino[2,1-c]pyrido[3,4-f][1,4]oxazepin-12-one]
14 | 23 nM | 4.2 nM | C=CC(=O)N1CCN2C(=O)c3c(N4CC(C)(O)CC4(C)C)nc(-c4c(O)cccc4F)c(Cl)c3OC[C@H]2C1 (stereo partly drawn) [Z243, (6aR)-8-acryloyl-4-chloro-3-(2-fluoro-6-hydroxyphenyl)-1-(4-hydroxy-2,2,4-trimethylpyrrolidin-1-yl)-6,6a,7,8,9,10-hexahydro-12H-pyrazino[2,1-c]pyrido[3,4-f][1,4]oxazepin-12-one]
15 | 9 nM | 1.7 nM | C=CC(=O)N1CCN2C(=O)c3c(N4CCN(C(=O)C5CC5)C[C@@H]4C)nc(-c4c(O)cccc4F)c(Cl)c3OC[C@H]2C1 [Z320-1, (6aR)-8-acryloyl-4-chloro-1-((S)-4-(cyclopropanecarbonyl)-2-methylpiperazin-1-yl)-3-(2-fluoro-6-hydroxyphenyl)-6,6a,7,8,9,10-hexahydro-12H-pyrazino[2,1-c]pyrido[3,4-f][1,4]oxazepin-12-one]
16 | 35 nM | 15.5 nM | C=CC(=O)N1CCN2C(=O)c3c(N4C[C@H](O)CC4(C)C)nc(-c4ccccc4F)c(Cl)c3OC[C@H]2C1 (single isomer, unassigned) [Z325-2]
17 | 33 nM | 6.2 nM | C=CC(=O)N1CCN2C(=O)c3c(N4C[C@@](C)(O)CC4(C)C)nc(-c4c(O)cccc4F)c(F)c3OC[C@H]2C1 (single isomer, unassigned) [Z256b-1]
18 | 18 nM | 4.9 nM | C=CC(=O)N1CCN2C(=O)c3c(N4CCC(O)C4(C)C)nc(-c4c(O)cccc4F)c(Cl)c3OC[C@H]2C1 (stereo partly drawn) [Z241, (6aR)-8-acryloyl-1-(3-hydroxy-2,2-dimethylpyrrolidin-1-yl)-4-chloro-3-(2-fluoro-6-hydroxyphenyl)-6,6a,7,8,9,10-hexahydro-12H-pyrazino[2,1-c]pyrido[3,4-f][1,4]oxazepin-12-one]
19 | 39 nM | 9 nM | C=CC(=O)N1CCN2C(=O)c3c(N4CC[C@@H](OC)[C@@H]4C)nc(-c4c(O)cccc4F)c(Cl)c3OC[C@H]2C1 [Z338-1, (6aR)-8-acryloyl-4-chloro-3-(2-fluoro-6-hydroxyphenyl)-1-((2S,3R)-3-methoxy-2-methylpyrrolidin-1-yl)-6,6a,7,8,9,10-hexahydro-12H-pyrazino[2,1-c]pyrido[3,4-f][1,4]oxazepin-12-one]
20 | 36 nM | 26 nM | C=CC(=O)N1CCN2C(=O)c3c(N4Cc5cn(C)nc5C4(C)C)nc(-c4c(O)cccc4F)c(Cl)c3OC[C@H]2C1 [Z310, (6aR)-8-acryloyl-1-(2,6,6-trimethylpyrrolo[3,4-c]pyrazol-5(2H,4H,6H)-yl)-4-chloro-3-(2-fluoro-6-hydroxyphenyl)-6,6a,7,8,9,10-hexahydro-12H-pyrazino[2,1-c]pyrido[3,4-f][1,4]oxazepin-12-one]
21 | 161 nM | 29 nM | C=CC(=O)N1CCN2C(=O)c3c(N4CCN(C)C[C@@H]4C)nc(-c4c(F)ccc(F)c4O)c(Cl)c3OC[C@H]2C1 [Z356, (6aR)-8-acryloyl-4-chloro-3-(3,6-difluoro-2-hydroxyphenyl)-1-((S)-2,4-dimethylpiperazin-1-yl)-6,6a,7,8,9,10-hexahydro-12H-pyrazino[2,1-c]pyrido[3,4-f][1,4]oxazepin-12-one]
22 | 64 nM | 16.2 nM | C=CC(=O)N1CCN2C(=O)c3c(N4CC[C@H](OC)C4(C)C)nc(-c4c(O)cccc4F)c(F)c3OC[C@H]2C1 (single isomer, unassigned) [Z327-2]
23 | 41 nM | 17 nM | C=CC(=O)N1CCN2C(=O)c3c(N4Cc5nn(C)cc5[C@@H]4C)nc(-c4c(O)cccc4F)c(Cl)c3OC[C@H]2C1 (single isomer, unassigned) [Z345-2]
24 | 41 nM | 11.6 nM | C=CC(=O)N1CCN2C(=O)c3c(N4C[C@@H](OC)CC4(C)C)nc(-c4c(O)cccc4F)c(F)c3OC[C@H]2C1 (single isomer, unassigned) [Z256a-1]
25 | 18 nM | 7 nM | C=CC(=O)N1CCN2C(=O)c3c(N4Cc5cn(C)nc5C4C)nc(-c4c(O)cccc4F)c(Cl)c3OC[C@H]2C1 (stereo partly drawn) [Z291-2]
26 | 26 nM | 5 nM | C=CC(=O)N1CCN2C(=O)c3c(N4C[C@@H](O)CC4(C)C)nc(-c4c(O)cccc4F)c(F)c3OC[C@H]2C1 (single isomer, unassigned) [Z256-1]
27 | 12 nM | 4 nM | C=CC(=O)N1CCN2C(=O)c3c(N4CC[C@H](OC)[C@@H]4C)nc(-c4c(O)cccc4F)c(Cl)c3OC[C@H]2C1 [Z347-1, (6aR)-8-acryloyl-4-chloro-3-(2-fluoro-6-hydroxyphenyl)-1-((2S,3S)-3-methoxy-2-methylpyrrolidin-1-yl)-6,6a,7,8,9,10-hexahydro-12H-pyrazino[2,1-c]pyrido[3,4-f][1,4]oxazepin-12-one]
28 | 78 nM | 18 nM | C=CC(=O)N1CCN2C(=O)c3c(N4CC(C#N)CC4(C)C)nc(-c4c(O)cccc4F)c(F)c3OC[C@H]2C1 (stereo partly drawn) [Z335]
29 | 20 nM | 7 nM | C=CC(=O)N1CCN2C(=O)c3c(N4CCCC4(C)C)nc(-c4c(O)cccc4F)c(Cl)c3OC[C@H]2C1 [Z22, (6aR)-8-acryloyl-4-chloro-1-(2,2-dimethylpyrrolidin-1-yl)-3-(2-fluoro-6-hydroxyphenyl)-6,6a,7,8,9,10-hexahydro-12H-pyrazino[2,1-c]pyrido[3,4-f][1,4]oxazepin-12-one]
30 | 11 nM | 3.7 nM | C=CC(=O)N1CCN2C(=O)c3c(N4C[C@@H](CO)CC4(C)C)nc(-c4c(O)cccc4F)c(Cl)c3OC[C@H]2C1 (single isomer, unassigned) [Z240-1]
